Tests used:
Format in all cases: cell-based, rhesus monkeys
[1] = system: isolated peripheral vascular muscle cells (VMC) from large arteries of the foreleg; experiment: Averaged contractions (cell width) of nicotine-stimulated VMC; conditions: primary cultured VMC pre-treated with wash of 4 ng/ml hormone, 10 μM nicotine; versus 0-min controls
Excerpt: (§1) Single VMCs from large arteries of the foreleg of adult rhesus monkeys are isolated and studied both as freshly dispersed and as primary cultures. The short-term primary cultured cells (never passaged) maintain the characteristics of the source tissue for 2 to 3 weeks, including contraction, relaxation, receptors, and membrane electrical properties. VMCs are dissociated with collagenase and protease enzymes in a potassium glutamate solution (KG) that prevents loading with Na^+, Ca^2′, or Cl^− and results in a high proportion of viable, contracting cells. See, Self, D. A., et al., J. Vasc. Res. 31:359-366 (1994); and Rusch., N. J., et al., Physiology and Pathophysiology of the Heart, 999-1010 (1995), each of which is incorporated herein by reference. The cells prepared for culture are seeded at low density in cardiovascular culture solution for mammals, fifth generation (CV5M) on glass coverslips to facilitate selection of individual cells. VMCs are used for studies 7 to 14 days after attaching to coverslips.
Freshly dispersed or primary cultured VMCs on glass coverslips are placed in a chamber of laminar flow design and observed with a high numerical aperture water immersion objective. […]
Normalized changes in cell widths from primary cultured VMC is determined.

[2] = system: isolated peripheral vascular muscle cells (VMC) from large arteries of the foreleg; experiment: Averaged PKC signals in nicotine-stimulated VMC; conditions: VMC pre-treated with wash of 4 ng/ml hormone, 10 μM nicotine; for peripheral-to-central PKC ratio: versus control; for change of PKC loci or intensity after nicotine stimulation: versus control values
Excerpt: as §1
(§2) Freshly dispersed or primary cultured VMCs on glass coverslips are placed in a chamber of laminar flow design and observed with a high numerical aperture water immersion objective. Ionic solution for mammals version 2 (ISM2) is continuously pumped through the chamber (at 1 ml/minute) to provide continuous equilibration and washout of drugs. After a 15 minutes equilibration period, VMC are loaded for 15 minutes at room temperature with 3 μM fluo 3 (Molecular Probes, Inc.) for sensing Ca^2+ and for 10 minutes with 30-100 nM hypericin (LC Laboratories) for reporting PKC. Individual VMC are stimulated by adding 20 μl of 10 μM nicotine over the individual cell. After 15 seconds under no-flow conditions, continuous flow of ISM2 was reinstated and a chamber volume of approximately 300 μl was maintained. Fluorescent images are taken at 1, 2, 5, 10, 15, 20 and 30 minutes after stimulation for Ca^2+ and at 3, 4, 9, 16, 21 and 31 minutes for PKC to evaluate subcellular distribution of these signals, and to determine VMC contraction.
(§3) ISM2 contains (in mM): 100 NaCl, 4 NaHCO3, 0.5 NaH2PO4, 4.7 KCl, 1.8 CaCl2, 0.41 […], 50 HEPES (pH 7.37), and 5.5 dextrose; KG solution contains (in mM); 140 K-glutamate, 16 NaHCO3, 0.5 NaH2PO4, 30 HEPES, and 16.5 dextrose at pH 7.3. CV5M contains: 4.0 mM L-glutamine, 10 μg/ml ciprofloxacin (Miles Pentex/Bayer Corporation), 50 mM HEPES (pH 7.3), and 16 mM NaHCO3 dissolved in 85% MEM-Earle's salts and 15% horse serum. Phenol red, known to have estrogenic activity, is omitted from all solutions.
One group of cells is pre-treated with a wash of 4 ng/ml of progesterone before stimulation with nicotine. A second group of cells is pre-treated with a wash of 4 ng/ml testosterone before stimulation. […]

[3] = system: isolated peripheral vascular muscle cells (VMC) from large arteries of the foreleg; experiment: Averaged Ca2+ signals in nicotine-stimulated VMC; conditions: VMC pre-treated with wash of 4 ng/ml hormone; for decrease in peripheral-to-central Ca2+ localization ratio / peak of Ca2+ increase after nicotine stimulation: 10 μM nicotine; for peak of Ca2+ increase after nicotine stimulation: versus non-treatment group; for whole cell Ca2+ response to nicotine stimulation: stimulated with 10 μM nicotine
Excerpt: as §1, §2, §3
One group of cells is pre-treated with a wash of 4 ng/ml of progesterone before stimulation with nicotine. A second group of cells is pre-treated with a wash of 4 ng/ml testosterone before stimulation. A third group of cells, the “non-treatment group”, is pre-treated with a wash of normal saline before stimulation. A fourth group of cells, which forms the control group, is pre-treated with a wash of normal saline and followed by “stimulation” with normal saline.
Normalized (per pixel) changes in intracellular Ca^2+ levels are expressed as averages over whole VMC and as peripheral-to-central ratios. […] The ratio decreases because of Ca^2+ release from intracellular stores.

Compound	VMC contractions (central cell widening) [1]	peripheral-to-central PKC ratio [2]	change of PKC loci or intensity after nicotine stimulation [2]	decrease in peripheral-to-central Ca2+ localization ratio [3]	peak of Ca2+ increase after nicotine stimulation [3]	whole cell Ca2+ response to nicotine stimulation [3]
CC(=O)[C@H]1CC[C@H]2[C@@H]3CCC4=CC(=O)CC[C@]4(C)[C@H]3CC[C@]12C [progesterone]	significantly different from 0-min controls only in the first few minutes following stimulation	never significantly different from control	fails to change PKC loci or intensity significantly from control values	too small to be significant	smaller peak than in the non-treatment group	only transiently stimulated by nicotine
C[C@]12CC[C@H]3[C@@H](CCC4=CC(=O)CC[C@@]43C)[C@@H]1CC[C@@H]2O [testosterone]	significantly different from 0-min controls only in the first few minutes following stimulation	never significantly different from control	fails to change PKC loci or intensity significantly from control values	too small to be significant	smaller peak than in the non-treatment group	only transiently stimulated by nicotine

— patent US20120232046A1, “METHOD AND KIT FOR REDUCING THE SYMPTOMS OF PERIPHERAL VASCULAR DISEASE” (Dimera Incorporated, priority 2003, published 2012)
